In brackets after ≈: the same amount, converted by molar mass. Activity calls are given as the source filed them.
Experiments:
Cannabinoid receptor 1 = Cannabinoid receptor 1 (Homo sapiens, UniProt P21554); experiment: Displacement of [3H]-CP-55,940 from recombinant human CB1R expressed in HEK293 cell membranes
Cannabinoid receptor 2 [1] = molecular target: T1, Cannabinoid receptor 2 (Homo sapiens, UniProt P34972); experiment: Displacement of [3H]-CP-55,940 from recombinant human CB2R expressed in HEK293 cell membranes
T1 sequence (P34972 whole entry): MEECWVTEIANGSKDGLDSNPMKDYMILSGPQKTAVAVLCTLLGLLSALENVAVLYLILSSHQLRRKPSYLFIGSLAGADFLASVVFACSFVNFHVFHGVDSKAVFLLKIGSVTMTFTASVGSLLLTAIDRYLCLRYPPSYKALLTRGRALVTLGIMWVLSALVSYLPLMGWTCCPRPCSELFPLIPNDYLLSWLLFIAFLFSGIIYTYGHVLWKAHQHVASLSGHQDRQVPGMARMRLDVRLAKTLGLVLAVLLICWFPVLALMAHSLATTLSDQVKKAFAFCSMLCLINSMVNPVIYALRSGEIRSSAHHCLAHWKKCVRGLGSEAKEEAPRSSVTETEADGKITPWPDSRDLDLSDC

NIH3T3 = experiment: Cytotoxicity against mouse NIH/3T3 assessed as reduction in cell viability after 1 to 14 days by Neutral red dye-based UV-visible spectrophotometer analysis; format: functional
[2] = Cytotoxicity against human NHAC-kn assessed as reduction in cell viability after 1 to 14 days by Neutral red dye-based UV-visible spectrophotometer analysis; format: functional
[3] = Kinetic solubility of the compound at pH 1.0 by HPLC-UV method; format: physicochemical; settings: buffer, read-out: Kinetic_solubility
[4] = Kinetic solubility of the compound at pH 7.4 by HPLC-UV method; format: physicochemical; settings: buffer, read-out: Kinetic_solubility
Cannabinoid receptor 2 [5] = molecular target: T1, Cannabinoid receptor 2; experiment: Inverse agonist activity at recombinant human CB2R expressed in CHOK1 cells assessed as increase in NKH477-stimulated intracellular cAMP levels after 30 mins by chemiluminescent based cAMP Hunter assay; format: functional, cell-based, CHO-K1
[6] = Ionization Constants, pKa of the compound by UV-vis spectra analysis; format: physicochemical
[7] = Lipophilicity, log P of the compound by UV-vis spectra analysis; format: physicochemical; settings: octanol/water
Homo sapiens = species on record: Homo sapiens; experiment: Selectivity index, ratio of Ki for recombinant human CB1R expressed in HEK293 cell membranes to Ki for recombinant human CB2R expressed in HEK293 cell membranes; format: cell-based
Cannabinoid receptor 2 [8] = molecular target: T1, Cannabinoid receptor 2; experiment: Agonist activity at recombinant human CB2R expressed in CHOK1 cells assessed as inhibition of NKH477-stimulated intracellular cAMP levels after 30 mins by chemiluminescent detection based cAMP Hunter assay; format: functional, cell-based, CHO-K1
[9] = Cytotoxicity against human NHAC-kn assessed as reduction in cell viability at 7.5 uM after 1 day by Neutral red dye-based UV-visible spectrophotometer analysis (reference value: 46 +/- 6%); format: functional
[10] = Cytotoxicity against human NHAC-kn assessed as reduction in cell viability at 7.5 uM after 7 days by Neutral red dye-based UV-visible spectrophotometer analysis (reference value: 73 +/- 8%); format: functional
[11] = Cytotoxicity against human NHAC-kn assessed as reduction in cell viability at 7.5 uM after 14 days by Neutral red dye-based UV-visible spectrophotometer analysis (reference value: 100 +/- 11%); format: functional
Rattus norvegicus [12] = experiment: Analgesic activity in MIA induced Wistar rat assessed as hind limb withdrawal threshold at 1 mg/kg, ip injection after 300 mins by PAM test; format: functional, organism-based
Rattus norvegicus [13] = experiment: Analgesic activity in MIA induced Wistar rat assessed as hind limb withdrawal threshold at 1 mg/kg, ip injection after 300 mins in presence of AM-630 by PAM test; format: functional, organism-based
Rattus norvegicus [14] = experiment: Analgesic activity in MIA induced Wistar rat assessed as differences in forces applied between rear left and rear right injured paws at 1 mg/kg, ip injection after 60 mins by KWB test; format: functional, organism-based
Rattus norvegicus [15] = experiment: Analgesic activity in MIA induced Wistar rat assessed as differences in forces applied between rear left and rear right injured paws at 1 mg/kg, ip injection after 60 mins in presence of AM-630 by KWB test; format: functional, organism-based
Cannabinoid receptor 2 [16] = molecular target: T1, Cannabinoid receptor 2; experiment: Antagonist activity at TNF-alpha induced CB2R in human HC-OA cells assessed as decreased in IL-1beta mRNA production preincubated for 1 hr followed by TNF-alpha stimulation measured after 5 hrs by RT-PCR analysis; format: cell-based
Cannabinoid receptor 2 [17] = molecular target: T1, Cannabinoid receptor 2; experiment: Antagonist activity at TNF-alpha induced CB2R in human HC-OA cells assessed as decreased in IL-1beta mRNA production preincubated for 1 hr followed by TNF-alpha stimulation measured after 5 hrs in presence of AM-630 by RT-PCR analysis; format: cell-based
[18] = Induction of extracellular matrix production in human NHAC-kn cells assessed as sGAG level at 7.5 uM after 1 day by UV-visible spectrophotometer analysis (reference value: 9.3 +/- 0.2 ug); format: functional
[19] = Induction of extracellular matrix production in human NHAC-kn cells assessed as sGAG level at 7.5 uM after 7 days by UV-visible spectrophotometer analysis (reference value: 11.2 +/- 0.4 ug); format: functional
[20] = Induction of extracellular matrix production in human NHAC-kn cells assessed as sGAG level at 7.5 uM after 14 days by UV-visible spectrophotometer analysis (reference value: 12.0 +/- 0.4 ug); format: functional
[21] = Induction of extracellular matrix production in human NHAC-kn cells assessed as HYP level at 7.5 uM after 1 day by UV-visible spectrophotometer analysis (reference value: 9.9 +/- 0.3 ug); format: functional
[22] = Induction of extracellular matrix production in human NHAC-kn cells assessed as HYP level at 7.5 uM after 7 days by UV-visible spectrophotometer analysis (reference value: 13.2 +/- 0.3 ug); format: functional
[23] = Induction of extracellular matrix production in human NHAC-kn cells assessed as HYP level at 7.5 uM after 14 days by UV-visible spectrophotometer analysis (reference value: 14.2 +/- 0.4 ug); format: functional
[24] = Induction of extracellular matrix production in human NHAC-kn cells assessed as sGAG/HYP level at 7.5 uM after 1 day by UV-visible spectrophotometer analysis (reference value: 0.9 +/- 0.1 ug); format: functional
[25] = Induction of extracellular matrix production in human NHAC-kn cells assessed as sGAG/HYP level at 7.5 uM after 7 days by UV-visible spectrophotometer analysis (reference value: 0.8 +/- 0.2 ug); format: functional
[26] = Induction of extracellular matrix production in human NHAC-kn cells assessed as sGAG/HYP level at 7.5 uM after 14 days by UV-visible spectrophotometer analysis (reference value: 0.9 +/- 0.2 ug); format: functional

Sequence of Cannabinoid receptor 1 (P21554 whole entry): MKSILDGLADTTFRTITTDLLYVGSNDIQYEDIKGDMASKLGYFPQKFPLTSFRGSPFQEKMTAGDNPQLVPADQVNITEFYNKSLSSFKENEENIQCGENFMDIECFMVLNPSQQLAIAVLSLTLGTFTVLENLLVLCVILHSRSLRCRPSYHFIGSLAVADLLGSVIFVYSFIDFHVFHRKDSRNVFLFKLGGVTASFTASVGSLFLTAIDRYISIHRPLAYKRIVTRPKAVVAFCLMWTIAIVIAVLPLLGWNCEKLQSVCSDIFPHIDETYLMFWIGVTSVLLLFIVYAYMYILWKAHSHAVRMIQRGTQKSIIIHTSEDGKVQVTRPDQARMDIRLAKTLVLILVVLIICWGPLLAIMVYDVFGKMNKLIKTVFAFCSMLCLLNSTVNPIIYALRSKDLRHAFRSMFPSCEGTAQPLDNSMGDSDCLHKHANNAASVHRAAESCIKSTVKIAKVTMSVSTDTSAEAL

Compound	Ki (Cannabinoid receptor 1) [nM]	Ki (Cannabinoid receptor 2 [1]) [nM]	IC50 (NIH3T3) [nM]	IC50 [2] [nM]	solubility kinetic [3] [µg/mL]	solubility kinetic [4] [µg/mL]	EC50 (Cannabinoid receptor 2 [5]) [nM]	EC50 (Cannabinoid receptor 2 [8]) [nM]	further results
CCCCCn1c(=O)c(C(=O)NC23CC4CC(CC(O)(C4)C2)C3)c(O)c2nn(CCO)cc21	492	57.1	7500	2500	9.7 (≈ 21.2 µM)	15 (≈ 32.7 µM)	–	–	–
Cn1cc2c(n1)c(O)c(C(=O)NC13CC4CC(CC(C4)C1)C3)c(=O)n2CCCCF	532	2.1	12500	7500	0.6 (≈ 1.44 µM)	0.8 (≈ 1.92 µM)	270	–	–
CCCCN1C(=O)C(C(=O)NC23CC4CC(CC(O)(C4)C2)C3)=C(O)C2C1C=NN2C (stereo not drawn)	86.9	19.3	25000	7500	2.1 (≈ 5.04 µM)	4.6 (≈ 11 µM)	–	–	pKa [6]: 7.56; logP [7]: 4.85
CCCCCn1c(=O)c(C(=O)NC23CC4CC(CC(C4)C2)C3)c(O)c2nn(C)cc21	33.5	0.18	–	–	2.9 (≈ 7.03 µM)	1.9 (≈ 4.61 µM)	1180	–	Ratio Ki (Homo sapiens): 167
CCCn1c(=O)c(C(=O)NC23CC4CC(CC(C4)C2)C3)c(O)c2nn(CCOC(C)=O)cc21	> 1000	186	–	–	–	1.1 (≈ 2.41 µM)	–	–	Ratio Ki (Homo sapiens): 5
CCCC(C)(C)c1ccc2c(c1)OC(C)(C)[C@@H]1CC=C(C)C[C@@H]21	–	–	–	–	–	–	–	391	–
CC(=O)OCCCCn1c(=O)c(C(=O)NC23CC4CC(CC(C4)C2)C3)c(O)c2nn(C)cc21	> 1000	17.3	25000	7500	–	1.3 (≈ 2.85 µM)	2080	–	–
CCCCN1C(=O)C(C(=O)NC23CC4CC(CC(C4)C2)C3)=C(O)C2C1C=NN2C (stereo not drawn)	69	1.8	25000	12500	0.13 (≈ 0.325 µM)	0.49 (≈ 1.22 µM)	–	110	Activity [9]: 51%; Activity [10]: 68%; Activity [11]: 94%; pKa [6]: 8; logP [7]: 5.3; Activity (Rattus norvegicus [12]): Active; Activity (Rattus norvegicus [13]): inactive; Activity (Rattus norvegicus [14]): Active; Activity (Rattus norvegicus [15]): inactive; Activity (Cannabinoid receptor 2 [16]): Active; Activity (Cannabinoid receptor 2 [17]): inactive; Activity [18]: 8.9%; Activity [19]: 12.6%; Activity [20]: 14.2%; Activity [21]: 10.1%; Activity [22]: 12.9%; Activity [23]: 13.9%; Activity [24]: 0.9%; Activity [25]: 1%; Activity [26]: 1%
COc1ccc(C(=O)c2c(C)n(CCN3CCOCC3)c3cc(I)ccc23)cc1	–	–	–	–	–	–	3150	–	–
CN1N=CC2C1C(O)=C(C(=O)NC13CC4CC(CC(C4)C1)C3)C(=O)N2CCCCF (stereo not drawn)	39.3	1.4	12500	12500	0.7 (≈ 1.67 µM)	1.5 (≈ 3.58 µM)	–	21.9	–
